Assay results published in patent US20260248763A1 (BIO GENUINE (SHANGHAI) BIOTECH CO., LTD, priority 2023, published 2026).
Where two headings read alike, the source gives them in different places.

How the values were obtained:
[1] = target: T1, OTR (Homo sapiens, UniProt P30559); test: Ca2+ mobilization in cells stably expressing OTR (FLIPR, antagonist mode); type: cell-based; settings: OTR/HEK293 stably transfected cell line
T1 construct: expressed in transfected cells; host or cells: OTR/HEK293 stably transfected cell line
T1 sequence (P30559 1-389): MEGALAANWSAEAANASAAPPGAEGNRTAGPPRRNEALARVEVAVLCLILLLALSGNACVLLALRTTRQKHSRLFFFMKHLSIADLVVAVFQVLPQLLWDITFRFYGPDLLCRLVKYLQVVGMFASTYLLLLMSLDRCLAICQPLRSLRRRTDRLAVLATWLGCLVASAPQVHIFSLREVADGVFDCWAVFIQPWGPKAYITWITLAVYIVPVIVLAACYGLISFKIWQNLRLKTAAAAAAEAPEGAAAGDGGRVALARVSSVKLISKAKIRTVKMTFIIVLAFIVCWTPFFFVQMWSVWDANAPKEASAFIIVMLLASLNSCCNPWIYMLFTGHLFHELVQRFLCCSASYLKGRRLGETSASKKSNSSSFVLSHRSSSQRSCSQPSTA
In short: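 OTR/HEK293 stable cells (20,000 per well) were loaded with Fluo-4 Direct plus probenecid. Cells were pre-exposed to 10-point, 3-fold compound dilutions before agonist challenge at EC80, determined beforehand per cell line. FLIPR calcium fluorescence (Max-Min) was fitted in Prism.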

[2] = Pharmacokinetic determination in SD rats; type: in vivo; settings: rat, female SD rats, plasma; for AUC(0-t): read-out: Area under the curve AUC0-t; for clearance: read-out: Clearance Cl; for half-life: read-out: Half-life T1/2 (converted)
Experimental: Test Example 3: Pharmacokinetic Determination in SD Rats
In this study, female SD rats were selected as test animals. The LC/MS/MS method was used to quantitatively determine the plasma drug concentrations of the test compounds at different time points after intravenous injection (2 mg/kg) or oral administration (5 mg/kg) in rats, so as to evaluate the pharmacokinetic profile of the test drugs in rats.
The example compounds of the present disclosure, made in house.
SD rats (female, 180-220 g, 6-8 weeks old, purchased from Beijing Vital River Laboratory Animal Technology Co., Ltd., with animal production license number SCXK (Beijing) 2021-0006).
Vehicle for intravenous administration: 5% DMSO+10% Solutol+85% Saline.
Vehicle for oral administration: 5% DMSO+95% PEG400.
The test compound, formulated as a clear solution or suspension, was administered to overnight-fasted SD rats via tail vein injection or oral gavage. For intravenous administration, blood samples (0.25 mL) were collected via jugular vein puncture at pre-dose (0 h) and 0.083, 0.25, 0.5, 1, 2, 4, 6, 8, and 24 h post-dose. The samples were placed into sodium heparin anticoagulant tubes, and the mixture was vortexed thoroughly and centrifuged at 6,000 rpm for 3 minutes at 4° C. For oral gavage, blood samples were collected via jugular vein puncture at pre-dose (0 h) and 0.083, 0.25, 1, 2, 4, 6, 8, and 24 h post-dose. The samples were placed into sodium heparin anticoagulant tubes, and the mixture was vortexed thoroughly and centrifuged at 6,000 rpm for 3 minutes. Plasma drug concentrations were determined using the LC-MS/MS method, and the relevant pharmacokinetic parameters were calculated using the non-compartmental model with linear-log trapezoidal method in Phoenix WinNonlin 8.2.0 pharmacokinetic software.

| SMILES | IC50 [1] [nM] | AUC(0-t) ([2]; 2 mg/kg, IV (2 mpk)) [ng·h/mL] | AUC(0-t) ([2]; 5 mg/kg, PO (5 mpk)) [ng·h/mL] | clearance ([2]; 2 mg/kg, IV (2 mpk)) [mL/min/kg] | half-life ([2]; 2 mg/kg, IV (2 mpk)) [h] | half-life ([2]; 5 mg/kg, PO (5 mpk)) [h] |
| --- | --- | --- | --- | --- | --- | --- |
| CO/N=C1/C[C@@H](CO)N(C(=O)c2ccc(-c3cc(F)cc(C#N)c3C)c3c2OCCO3)C1 [Example C0152, (S,Z)-5-Fluoro-3-(8-(2-(hydroxymethyl)-4-(methoxyimino)pyrrolidine-1-carbonyl)-2,3-dihydrobenzo[b][1,4]dioxin-5-yl)-2-methylbenzonitrile] | 6.63 | – | – | – | – | – |
| CO/N=C1/C[C@@H]([C@@H](C)O)N(C(=O)c2ccc(-c3cccc(C#N)c3C)cc2)C1 (single isomer, unassigned) [Example C0112] | 7.51 | – | – | – | – | – |
| CON=C1CC(CO)N(C(=O)c2ccc(-c3cccc(C#N)c3C)c3c2OCO3)C1 (single isomer, unassigned) [Example C0099] | 17.5 | – | – | – | – | – |
| CO/N=C1/C[C@@H](CO)N(C(=O)c2ccc(-c3cccc(C#N)c3C)cc2)C1 [Example C0058, (S, Z)-4′-(2-(Hydroxymethyl)-4-(methoxyimino)pyrrolidine-1-carbonyl)-2-methyl-[1,1′-biphenyl]-3-carbonitrile] | 17.7 | 4640 | 11400 | 7.4 | 3 | 3.11 |
| CO/N=C1/C[C@@H](CO)N(C(=O)c2ccc(-c3cccc(C#N)c3Cl)cc2)C1 [Example A0203, 2-Chloro-3-(4-[(2S, 4Z)-2-(hydroxymethyl)-4-(methoxyimino)pyrrolidine-1-carbonyl]phenyl)benzonitrile] | 20.8 | 7160 | 16000 | 4.66 | 5.23 | 5.97 |
